Measured values from the supplement of paper PMC13380429.
± gives the standard deviation of the averaged measurements.

Assays:
Details in all cases: 72 h
Caco-2 [1] = assay: cell viability relative to DMSO; higher = less toxic
Calu-3 [2] = assay: as above
HepG2 [3] = assay: as above
U2OS [4] = assay: as above
Vero E6 [5] = assay: as above
Caco-2 [6] = assay: relative viability EC50 (midpoint between 100% and the lowest measured viability); higher = less toxic
Calu-3 [7] = assay: as above
HepG2 [8] = assay: as above
U2OS [9] = assay: as above
Vero E6 [10] = assay: as above
Caco-2 [11] = assay: drug sensitivity score (DSS) for viability; higher = more toxic; extreme values may be limits of the assay
Calu-3 [12] = assay: as above
HepG2 [13] = assay: as above
U2OS [14] = assay: as above
Vero E6 [15] = assay: as above

Row | Structure (SMILES) | cell viability (Caco-2 [1]; 1 nM) | cell viability (Caco-2 [1]; 10 nM) | cell viability (Caco-2 [1]; 100 nM) | cell viability (Caco-2 [1]; 1000 nM) | cell viability (Caco-2 [1]; 10000 nM) | cell viability (Calu-3 [2]; 1 nM) | cell viability (Calu-3 [2]; 10 nM) | cell viability (Calu-3 [2]; 100 nM) | cell viability (Calu-3 [2]; 1000 nM) | cell viability (Calu-3 [2]; 10000 nM) | cell viability (HepG2 [3]; 1 nM) | cell viability (HepG2 [3]; 10 nM) | cell viability (HepG2 [3]; 100 nM) | cell viability (HepG2 [3]; 1000 nM) | cell viability (HepG2 [3]; 10000 nM) | cell viability (U2OS [4]; 1 nM) | cell viability (U2OS [4]; 10 nM) | cell viability (U2OS [4]; 100 nM) | cell viability (U2OS [4]; 1000 nM) | cell viability (U2OS [4]; 10000 nM) | cell viability (Vero E6 [5]; 1 nM) | cell viability (Vero E6 [5]; 10 nM) | cell viability (Vero E6 [5]; 100 nM) | cell viability (Vero E6 [5]; 1000 nM) | cell viability (Vero E6 [5]; 10000 nM) | relative viability EC50 (Caco-2 [6]) | relative viability EC50 (Calu-3 [7]) | relative viability EC50 (HepG2 [8]) | relative viability EC50 (U2OS [9]) | relative viability EC50 (Vero E6 [10]) | drug sensitivity score (Caco-2 [11]) | drug sensitivity score (Calu-3 [12]) | drug sensitivity score (HepG2 [13]) | drug sensitivity score (U2OS [14]) | drug sensitivity score (Vero E6 [15])
1 | CC(C)NC[C@@H](O)COc1ccccc1-n1cccc1 (racemic) [isamoltane] | 96.3% | 97.7% | 93.1% | 103% | 107% | 98.2% | 99.2% | 94.9% | 97.1% | 98.3% | 97.1% | 100% | 108% | 105% | 104% | 96.8% | 99% | 97.4% | 107% | 102% | 105% | 97.7% | 96.1% | 96.3% | 102% | > 10 µM | > 10 µM | > 10 µM | > 10 µM | > 10 µM | 0 | 0 | 0 | 0 | 0
2 | CC(C)(O)C(=O)Nc1ccc([N+](=O)[O-])c(C(F)(F)F)c1 [2-hydroxyflutamide] | 97.3% | 90.4% | 90% | 96.5% | 87.9% | 100% | 97.2% | 97.8% | 101% | 107% | 97.6% | 99.3% | 92.6% | 98% | 98.1% | 99% | 105% | 103% | 97.1% | 94.6% | 100% | 102% | 102% | 93.9% | 97% | > 10 µM | > 10 µM | > 10 µM | > 10 µM | > 10 µM | 0 | 0 | 0 | 0 | 0
3 | N=C1N[C@H]2[C@H](CS[C@H]2CCCCC(=O)O)N1 [2-iminobiotin] | 93.6% | 105% | 96.8% | 98.8% | 98% | 105% | 98.8% | 101% | 118% | 106% | 100% | 102% | 106% | 97.6% | 106% | 102% | 102% | 99.5% | 104% | 98.3% | 110% | 106% | 105% | 97.5% | 102% | > 10 µM | > 10 µM | > 10 µM | > 10 µM | > 10 µM | 0 | 0 | 0 | 0 | 0
4 | N[C@H](C(=O)O)c1ccc(O)c(C(=O)O)c1 [3-carboxy-4-hydroxyphenylglycine-(S)] | 95.6 ± 1.8% | 101 ± 1.3% | 95.2 ± 2.6% | 93.4 ± 0.57% | 101 ± 4.5% | 96.5 ± 5.7% | 89 ± 0.99% | 96 ± 4.8% | 94.2 ± 3% | 101 ± 3% | 102.2 ± 0.28% | 97.5 ± 5.9% | 98.7 ± 0.28% | 100 ± 2.3% | 100 ± 1.3% | 101 ± 0.71% | 101 ± 1.9% | 103 ± 2.5% | 94.8 ± 4.5% | 102 ± 0.49% | 104 ± 7.1% | 103.7 ± 0.35% | 99 ± 2.3% | 106 ± 3.2% | 101 ± 2.1% | > 10 µM | > 10 µM | > 10 µM | > 10 µM | > 10 µM | 0 | 0 | 0 | 0 | 0
5 | Cn1cnc(N)c2ncnc1-2 [3-methyladenine] | 99.3% | 94.8% | 108% | 102% | 100% | 104% | 101% | 95.2% | 106% | 106% | 103% | 102% | 89.6% | 101% | 90.5% | 103% | 97.1% | 98.3% | 97.9% | 99.8% | 95.1% | 103% | 102% | 96.6% | 96.5% | > 10 µM | > 10 µM | > 10 µM | > 10 µM | > 10 µM | 0 | 0 | 0 | 0 | 0
6 | C1CCC2(CC1)CCNCC2 [4,4-pentamethylenepiperidine] | 99.9% | 93% | 97.4% | 91.2% | 102% | 99.2% | 96.3% | 109% | 95.1% | 101% | 104% | 90.7% | 96% | 102% | 96.7% | 97.2% | 95.3% | 95.2% | 94.9% | 91.7% | 102% | 101% | 100% | 104% | 98.7% | > 10 µM | > 10 µM | > 10 µM | > 10 µM | > 10 µM | 0 | 0 | 0 | 0 | 0
7 | Cc1cc(=O)oc2c(C=O)c(O)ccc12 [4-mu-8C] | 98% | 95.5% | 101% | 104% | 87.1% | 102% | 92.7% | 118% | 110% | 97.9% | 106% | 106% | 111% | 87.4% | 89.3% | 107% | 101% | 97.8% | 100% | 99% | 97.6% | 104% | 102% | 102% | 100% | > 10 µM | > 10 µM | > 10 µM | > 10 µM | > 10 µM | 0 | 0 | 0.6 | 0 | 0
